Patent EP0067910B1, “Compounds and compositions for treatment of ocular hypertension” (priority 1981, dated 1982)
Where a name gives a salt, the structure may show the parent alone.

Tests used:
conscious rabbits = assay: Ocular response (intraocular pressure, pupil diameter) to a single topical application to one eye of conscious rabbits; format: in vivo; conditions: for intraocular pressure / pupillary dilation: in 0.9 percent (w/v) physiological saline, summary of Tables IIIA, IIIB, IV and V; for Intraocular Pressure (mm Hg) Mean Δ Control-Exp. / Intraocular Pressure (mm Hg) Treated Eye: single application; for Intraocular Pressure (mm Hg) Mean Δ: control eye minus exp. eye; for Intraocular Pressure (mm Hg) Mean Δ / Pupil Diameter (mm) Mean Δ / Intraocular Pressure (mm Hg) Exp. Eye / Pupil Diameter (mm) Exp. Eye: mean of maximal responses; for Pupil Diameter (mm) Mean Δ: difference between pairs of eyes; for Intraocular Pressure (mm Hg) Exp. Eye / Pupil Diameter (mm) Exp. Eye: single topical application
Text: The effect of different concentrations of racemic a-methyl norepinephrine hydrochloride in 0.9 percent (w/v) physiological saline applied singly to one eye of conscious rabbits is summarized in Table I, below.
The reported pressure and pupillary responses are the means of the maximal responses based on the time courses of the responses in pairs of eyes of individual rabbits. The number in parentheses denotes the number of experimental subjects.
The mean time course of the ocular response to a 0.5 percent (w/v) solution of racemic a-methyl norepinephrine in 0.9 percent (w/v) physiological saline applied unilaterally to conscious rabbits is shown in Table II, below.
The drug was applied unilaterally (treated eye). In the third column is reported the mean pressure difference in pairs of eyes of individual rabbits. The number in parentheses denotes the number of experimental subjects.
Tables IIIA, IIIB, IV and V, below, summarize the experimental results using racemic a-methyl epinephrine, diester of a-methyl epinephrine, and diester of a-methyl norepinephrine in 0.9 percent (w/v) physiological saline.
The drug was applied unilaterally (Exp. Eye) at T = 0 hr. In the third column is reported the mean pressure difference between pairs of eyes of individual rabbits.

Solubility in water = format: physicochemical
[1] = tested on: normal healthy volunteers; assay: Tonometry, tonography and pupil diameter after one drop to one eye of human subjects; format: in vivo; conditions: for intraocular pressures of the treated eyes: one drop of 0.1 percent (w/v), seven subjects
Protocol: Tonometry and tonography studies were performed on normal healthy volunteers using an instrument denominated The Alcon pneumatonograph, available from Alcon Laboratories, Forth Worth, Texas. One drop of proparacaine (0.5 percent w/v) was applied to each eye prior to taking tonometric readings. The tonometer was calibrated by a manometric standard prior to initiation of these studies and checked on an air standardizer on each day of use. […] Pupil diameters were measured under normal laboratory light.
Each drug discussed hereinafter was dissolved in sterile physiological saline.
The reported values are the means of the maximal responses based on the time courses of the responses in pairs of eyes of individual subjects. The numbers in parentheses denote the number of experimental subjects. Po (mm Hg) is the intraocular pressure in seated subjects, C (µl min^-1 mm Hg^-1) is the outflow facility, and F (ul min^-1) is the rate of formation of the aqueous humor (subject supine).

intraocular pressure = conditions: Annals of Ophthalmology, 3, No. 3, 282 (March 1971); cited from earlier work
[2] = human, in vivo
Protocol: The blood pressure and the heart rate of all subjects given the dipivaloyl a-methyl epinephrine were measured prior to and after administration of the drop. No decrease in blood pressure or heart rate was observed.

[3] = 0.5 percent (w/v), two normal subjects
[4] = 0.5 percent (w/v) solution, eight rabbits, time 0 hours
[5] = 0.5 percent (w/v) solution, eight rabbits, time 0.5 hours
[6] = 0.5 percent (w/v) solution, eight rabbits, time 1.0 hours
[7] = 0.5 percent (w/v) solution, eight rabbits, time 3.0 hours
[8] = 0.5 percent (w/v) solution, eight rabbits, time 5.0 hours
[9] = 0.5 percent (w/v) solution, eight rabbits, time 24.0 hours
[10] = tonographic studies on human subjects
[11] = 0.5 percent (w/v), six rabbits, time 0 hours
[12] = 0.5 percent (w/v), six rabbits, time 1 hour
[13] = 0.5 percent (w/v), six rabbits, time 3 hours
[14] = 0.5 percent (w/v), six rabbits, time 4 hours
[15] = 0.1 percent (w/v), normal subjects
[16] = 0.5 percent (w/v), normal subjects

## CC(N)C(O)c1ccc(OC(=O)C(C)(C)C)c(OC(=O)C(C)(C)C)c1 (centres unmarked) [diester of a-methyl norepinephrine]
Conscious rabbits
  intraocular pressure: reducing intraocular pressure
  pupillary dilation: lack of pupillary dilation

## CC(N)C(O)c1ccc(OC(=O)C(C)(C)C)c(OC(=O)C(C)(C)C)c1 (centres unmarked) [Compound 5, 4-(2-amino-1-hyaroxypropyt)-1,2-dipivaioyioxybenzene hydrochloride]
Solubility in water
  solubility in water: freely soluble in water

## CNC(C)C(O)c1ccc(O)c(O)c1 (stereo not drawn) [α-methyl Epinephrine Hydrochloride, a-methyl epinephrine hydrochloride]
[1]; [3]
  intraocular pressure in the treated eyes: significant decrease
  mydriatic response: not associated with a mydriatic response
  time to development of the decrease of intraocular pressure: ≤ 1 h
Conscious rabbits; [4]
  Intraocular Pressure (mm Hg) Mean Δ Control-Exp.: −0.1 ± 0.2 mm Hg
  Intraocular Pressure (mm Hg) Treated Eye: 22.7 ± 0.6 mm Hg
Conscious rabbits; [5]
  Intraocular Pressure (mm Hg) Mean Δ Control-Exp.: 3.3 ± 0.8 mm Hg
  Intraocular Pressure (mm Hg) Treated Eye: 19.4 ± 1.3 mm Hg
Conscious rabbits; [6]
  Intraocular Pressure (mm Hg) Mean Δ Control-Exp.: 5.9 ± 0.6 mm Hg
  Intraocular Pressure (mm Hg) Treated Eye: 15.9 ± 1.2 mm Hg
Conscious rabbits; [7]
  Intraocular Pressure (mm Hg) Mean Δ Control-Exp.: 6.0 ± 0.8 mm Hg
  Intraocular Pressure (mm Hg) Treated Eye: 14.1 ± 0.5 mm Hg
Conscious rabbits; [8]
  Intraocular Pressure (mm Hg) Mean Δ Control-Exp.: 5.5 ± 0.7 mm Hg
  Intraocular Pressure (mm Hg) Treated Eye: 14.6 ± 0.6 mm Hg
Conscious rabbits; [9]
  Intraocular Pressure (mm Hg) Mean Δ Control-Exp.: 0.6 ± 0.1 mm Hg
  Intraocular Pressure (mm Hg) Treated Eye: 22.9 ± 0.9 mm Hg
Conscious rabbits
  intraocular pressure: reducing intraocular pressure
  pupillary dilation: lack of pupillary dilation
Intraocular pressure
  lowering intraocular pressure: inactive

## CNC(C)C(O)c1ccc(OC(=O)C(C)(C)C)c(OC(=O)C(C)(C)C)c1 (centres unmarked) [4-(2-N-methylamino-1-hydroxypropyl)-1,2-dipivaloyloxybenzene hydrochloride]
[1]; 0.1 percent (w/v), normal subject
  pupillary response: almost complete lack of pupillary response
[1]; 24 hours
  intraocular pressures of the treated eyes: recovered
[1]; at 1 and 5 hours
  intraocular pressures of the treated eyes: significantly decreased
[1]; [10]
  outflow facility: increase
  rate of formation of the aqueous humor: reduction

## CNC(C)C(O)c1ccc(OC(=O)C(C)(C)C)c(OC(=O)C(C)(C)C)c1 (centres unmarked) [diester of a-methyl epinephrine]
Conscious rabbits
  intraocular pressure: reducing intraocular pressure
  pupillary dilation: lack of pupillary dilation

## CNC(C)C(O)c1ccc(OC(=O)C(C)(C)C)c(OC(=O)C(C)(C)C)c1 (centres unmarked) [dipivaloyl a-methyl epinephrine]
[1]; one drop of 0.05 percent (w/v), three normal human subjects, at 1 and 3 hours
  intraocular pressure of the treated eye: decreased
[2]
  blood pressure: No decrease
  heart rate: No decrease

## CC(N)C(O)c1ccc(O)c(O)c1 (racemic) [α-Methyl Norepinephrine, a-methyl norepinephrine]
Conscious rabbits; 0.1 percent wt. by volume
  Intraocular Pressure (mm Hg) Mean Δ: 0.9 ± 0.3 (4) mm Hg
  Pupil Diameter (mm) Mean Δ: 0.9 ± 0.4 (4) mm
  Intraocular Pressure (mm Hg) Exp. Eye: 20.6 ± 1.3 mm Hg
  Pupil Diameter (mm) Exp. Eye: 4.6 ± 0.47 mm
Conscious rabbits; 0.3 percent wt. by volume
  Intraocular Pressure (mm Hg) Mean Δ: 4.5 ± 0.3 (4) mm Hg
  Pupil Diameter (mm) Mean Δ: 1.2 ± 0.63 (4) mm
  Intraocular Pressure (mm Hg) Exp. Eye: 16.5 ± 0.3 mm Hg
  Pupil Diameter (mm) Exp. Eye: 4.4 ± 0.9 mm
Conscious rabbits; [11]
  Intraocular Pressure (mm Hg) Mean Δ Control-Exp.: 0.3 ± 0.3 (6) mm Hg
  Intraocular Pressure (mm Hg) Treated Eye: 22.8 ± 1.4 (6) mm Hg
Conscious rabbits; [12]
  Intraocular Pressure (mm Hg) Mean Δ Control-Exp.: 2.8 ± 0.9 (6) mm Hg
  Intraocular Pressure (mm Hg) Treated Eye: 20.2 ± 1.6 (6) mm Hg
Conscious rabbits; [13]
  Intraocular Pressure (mm Hg) Mean Δ Control-Exp.: 7.2 ± 0.9 (6) mm Hg
  Intraocular Pressure (mm Hg) Treated Eye: 15.8 ± 1.3 (6) mm Hg
Conscious rabbits; [14]
  Intraocular Pressure (mm Hg) Mean Δ Control-Exp.: 6.3 ± 1.2 (6) mm Hg
  Intraocular Pressure (mm Hg) Treated Eye: 16.7 ± 1.2 (6) mm Hg
Conscious rabbits; 0.5 percent wt. by volume
  Intraocular Pressure (mm Hg) Mean Δ: 6.0 ± 0.3 (4) mm Hg
  Pupil Diameter (mm) Mean Δ: 0.9 ± 0.5 (4) mm
  Intraocular Pressure (mm Hg) Exp. Eye: 15.5 ± 0.8 mm Hg
  Pupil Diameter (mm) Exp. Eye: 3.9 ± 0.4 mm
Conscious rabbits; 0.8 percent wt. by volume
  Intraocular Pressure (mm Hg) Mean Δ: 6.8 ± 0.7 (6) mm Hg
  Pupil Diameter (mm) Mean Δ: 1.1 ± 0.30 (6) mm
  Intraocular Pressure (mm Hg) Exp. Eye: 15.7 ± 1.1 mm Hg
  Pupil Diameter (mm) Exp. Eye: 4.8 ± 0.42 mm
Conscious rabbits; 1.0 percent wt. by volume
  Intraocular Pressure (mm Hg) Mean Δ: 7.4 ± 0.7 (10) mm Hg
  Pupil Diameter (mm) Mean Δ: 3.4 ± 0.4 (10) mm
  Intraocular Pressure (mm Hg) Exp. Eye: 14.3 ± 0.6 mm Hg
  Pupil Diameter (mm) Exp. Eye: 7.2 ± 0.51 mm
Intraocular pressure
  lowering intraocular pressure: inactive

## CNCC(O)c1ccc(OC(=O)C(C)(C)C)c(OC(=O)C(C)(C)C)c1 (centres unmarked) [dipivaloyl epinephrine, reference compound]
[1]; [15]
  intraocular pressure response: no effect on intraocular pressure
[1]; [16]
  intraocular pressure response: significant decrease of intraocular pressure
  mydriasis: marked mydriasis
[1]; normal subjects, 1 hour after application
  intraocular pressure response at 1 hour: no significant pressure response

## CC(C)(C)NC[C@H](O)COc1nsnc1N1CCOCC1 [timolol maleate, reference compound]
[1]; [15]
  intraocular pressure response: no demonstrable pressure response
[1]; [16]
  intraocular pressure response: did give a pressure response
[1]; normal subjects, concentration not given
  pupillary response: lack of pupillary response
[1]; [10]
  outflow facility: no effect
